Molecular target: T1, human SHIP2 (Homo sapiens, UniProt O15357)
T1 construct: full-length human SHIP2 (aa 1–1 258) containing a C-terminal FLAG-tag; FLAG (C); made in house; host or cells: Expi293 cells (pcDNA3.4, transient)
T1 sequence (O15357 1-1258): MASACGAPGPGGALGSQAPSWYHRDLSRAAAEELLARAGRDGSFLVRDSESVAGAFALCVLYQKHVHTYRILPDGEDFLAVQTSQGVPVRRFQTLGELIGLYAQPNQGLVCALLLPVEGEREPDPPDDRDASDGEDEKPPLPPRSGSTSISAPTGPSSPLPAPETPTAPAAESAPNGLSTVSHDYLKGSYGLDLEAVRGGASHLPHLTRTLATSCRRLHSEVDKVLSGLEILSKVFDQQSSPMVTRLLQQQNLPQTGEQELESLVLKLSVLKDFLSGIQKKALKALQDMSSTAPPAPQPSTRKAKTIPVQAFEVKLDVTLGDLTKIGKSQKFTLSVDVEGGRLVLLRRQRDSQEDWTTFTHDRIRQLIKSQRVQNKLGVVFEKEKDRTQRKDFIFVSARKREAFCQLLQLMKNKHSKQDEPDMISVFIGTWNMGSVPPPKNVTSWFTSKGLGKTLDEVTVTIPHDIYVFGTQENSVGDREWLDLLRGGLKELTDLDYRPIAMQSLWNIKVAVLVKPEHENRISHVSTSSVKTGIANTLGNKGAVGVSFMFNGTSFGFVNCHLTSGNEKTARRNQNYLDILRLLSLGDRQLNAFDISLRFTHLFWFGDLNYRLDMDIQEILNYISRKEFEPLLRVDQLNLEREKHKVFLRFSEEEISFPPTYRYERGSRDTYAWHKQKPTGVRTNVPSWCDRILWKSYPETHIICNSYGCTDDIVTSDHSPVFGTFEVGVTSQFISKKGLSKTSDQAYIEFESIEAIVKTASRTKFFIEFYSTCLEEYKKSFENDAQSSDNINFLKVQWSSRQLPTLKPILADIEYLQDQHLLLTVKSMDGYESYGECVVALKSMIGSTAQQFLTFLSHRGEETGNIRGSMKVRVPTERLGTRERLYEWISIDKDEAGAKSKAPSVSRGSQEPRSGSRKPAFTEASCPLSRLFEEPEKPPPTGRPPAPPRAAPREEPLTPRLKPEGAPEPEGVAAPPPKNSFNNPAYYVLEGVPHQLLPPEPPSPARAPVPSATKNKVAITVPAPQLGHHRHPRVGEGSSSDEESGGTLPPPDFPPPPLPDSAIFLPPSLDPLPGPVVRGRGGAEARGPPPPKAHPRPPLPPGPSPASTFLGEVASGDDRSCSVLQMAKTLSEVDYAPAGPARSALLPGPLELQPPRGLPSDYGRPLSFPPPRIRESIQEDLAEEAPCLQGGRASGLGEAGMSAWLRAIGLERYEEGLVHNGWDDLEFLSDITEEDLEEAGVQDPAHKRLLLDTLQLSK
Assay: Inorganic phosphate detection assay for phosphatase inhibition
Type: biochemical
Conditions: 20 µM diC8-PI(3,4,5)P3, 20 min

## CC(C)c1sc(NC(=O)c2ccccc2)c(C(=O)O)c1-c1ccccc1 [CPD-1]
  IC50: > 100 µM

From PMC13047053, “Crystal structure of human INPP5K with an allosteric inhibitor reveals the structural basis for species specific potency” (Scientific Reports, 2026)
